Entries after “also recorded” stand apart in the source; their conditions may differ.
How the values were obtained:
[1] = target: δ-opioid receptor (DOR) (Homo sapiens, UniProt P41143); conditions: C99-transfected HEK293 cells; DADLE plus NALT
[2] = stated as a property, no test described; cited from earlier work
[3] = test system: APPswe/PS1ΔE9 mice; assay: Morris water maze, APPswe/PS1ΔE9 mice, Animal Model Experiment 1; conditions: for escape latency, visible platform training / escape latency, hidden platform training: oral administration from 4 months of age; for escape latency, visible platform training: transgenic mice; for escape latency, hidden platform training / percent time spent in the platform quadrant, probe trial: versus control transgenic mice; for percent time spent in the platform quadrant, probe trial: 24 h after the final hidden platform training; for swim speed as cause of the observed effects: FIG. 15d, 16d, 17d
[4] = test system: γ-secretase; assay: Immunofluorescence microscopy of acute hippocampal slices, localization of γ-secretase in LEL; conditions: Iso treatment
[5] = test system: γ-secretase; conditions: wild-type versus presenilin-deficient MEFs; 10 μM Iso, 30 min
[6] = test system: γ-secretase; assay: γ-Secretase fluorogenic substrate assay, C6 glioma membrane fractions; type: cell-based
[7] = test system: endogenous β-ARs; assay: Secreted Aβ ELISA in primary hippocampal cultures expressing C99, β-AR stimulation; type: cell-based, rat; conditions: 10 μM Iso, 1 h
[8] = test system: APPswe/PS1ΔE9 mice; assay: Cerebral amyloid plaque formation in APPswe/PS1ΔE9 mice after chronic administration; conditions: daily for 30 days, 3 nM Iso i.c.v., 2 mg/kg Cle oral, 1 mg/kg ICI 118,551 oral
[9] = test system: γ-secretase; assay: γ-Secretase activity in rat hippocampus after acute injection (fluorogenic substrate assay); conditions: rats, 2 μg norepinephrine i.c.v. or 0.5 mg/kg clenbuterol i.p.
[10] = test system: Aβ40 and Aβ42; assay: Aβ levels in rat hippocampus after acute injection (rat Aβ ELISA); conditions: rats, 2 μg norepinephrine i.c.v. or 0.5 mg/kg clenbuterol i.p.
[11] = test system: γ-secretase; assay: γ-Secretase fluorogenic substrate assay, SH-SY5Y neuroblastoma; type: cell-based
Description: The enhancement of γ-secretase activity upon activation of receptors is not limited to β-AR. Similar results were also observed when endogenous DOR in SH-SY5Y neuroblastoma (FIG. 7a) or in primary hippocampal cultures (FIG. 7b) were stimulated.
Again, the involvement of LEL in the enhancement of the γ-secretase activity is not limited to β-AR. […] The experiment shown in FIG. 12 was performed with SH-SY5Y neuroblastoma. […] The fractions were subjected to […] (Aβ) assay and fluorogenic substrate assay.

[12] = test system: APPswe/PS1ΔE9 double-transgenic mice; assay: Morris water maze, APPswe/PS1ΔE9 mice, Animal Model Experiment 2; type: in vivo, mouse; conditions: for escape latency, visible platform / escape latency, hidden platform: oral daily for 30 days, 2 mg/kg clenbuterol or 1 mg/kg ICI 118,551; for escape latency, hidden platform: versus Sal mice
Description: In further animal experiments, four-month old APPswe/PS1ΔE9 double-transgenic mice were orally administered with saline (Sal), 2 mg/kg clenbuterol (Cle, a β2AR-selective agonist) or 1 mg/kg ICI 118,551 (ICI, a β2AR-selective antagonist) daily for 30 days.
The water maze was a circular 1.2 m pool filled with water at 24-25° C. and made opaque by the addition of milk powder. The pool was placed amid fixed spatial cues consisting of boldly patterned curtains and shelves containing distinct objects. […] Mice first underwent visible platform training for 2 consecutive days (eight trials per day), swimming to a raised circular platform (10 cm of diameter) marked with a pole. Visible platform days were split into two training blocks of four trials for statistical analysis. During visible platform training, both the platform location (NE, SE, SW, or NW) and start position (N, […], S, or W) were varied pseudo-randomly in each trial.
Hidden platform raining was conducted over 6 consecutive days (four trials per day), wherein mice were allowed to search for a platform submerged 1.5 cm beneath the surface of the water. Mice failing to reach the platform within 60 sec were led to the platform. During hidden-platform trials, the location of the platform remained constant, and mice entered the pool in one of the four pseudo-randomly selected locations (N, E, S, or W). After each hidden platform trial, mice remained on the platform for 30 sec and were removed from the platform and returned to their home cage.
Twenty-four hours after the final hidden platform training, a probe trial was conducted in which the platform was removed from the pool and mice were allowed to search for the platform for 60 sec. All trials were monitored by a camera mounted directly above the pool and were recorded and analyzed using a computerized tracking system.

[13] = test system: γ-secretase; assay: γ-Secretase fluorogenic substrate assay, acute hippocampal slices; type: cell-based, rat; conditions: 1 μM DADLE, 30 minutes
[14] = test system: γ-secretase; assay: γ-Secretase fluorogenic substrate assay, HEK293 cells treated with transferrin; type: cell-based; conditions: transferrin-induced endocytosis
Description: However, it is till not clear whether clathrin-mediated endocytosis by itself is […] to induce the enhancement of γ-secretase activity. To answer this question, HEK293 cells were treated with transferrin, which can induce constitutive clathrin-dependent endocytosis of transferrin receptor.

[15] = target: T1, β2AR (Homo sapiens, UniProt P07550); assay: Secreted Aβ ELISA in HEK293 cells co-expressing β2AR and APPswe; type: cell-based; conditions: 10 μM Iso 1 h with 10 μM Pro, or after 6-h pre-treatment with 1 μM L685,458
T1 construct: expressed in transfected cells; host or cells: HEK293
T1 sequence (P07550 whole entry): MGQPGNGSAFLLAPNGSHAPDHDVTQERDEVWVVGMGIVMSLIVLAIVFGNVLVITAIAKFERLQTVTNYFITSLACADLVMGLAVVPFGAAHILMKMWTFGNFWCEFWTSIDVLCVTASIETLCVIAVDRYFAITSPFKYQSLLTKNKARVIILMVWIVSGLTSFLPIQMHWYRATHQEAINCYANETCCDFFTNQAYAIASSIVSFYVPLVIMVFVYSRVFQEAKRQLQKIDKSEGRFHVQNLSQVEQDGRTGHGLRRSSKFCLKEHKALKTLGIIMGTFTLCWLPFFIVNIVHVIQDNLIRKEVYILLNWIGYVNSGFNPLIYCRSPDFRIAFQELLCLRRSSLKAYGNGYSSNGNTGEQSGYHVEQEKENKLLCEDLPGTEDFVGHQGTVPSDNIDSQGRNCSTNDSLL

Chain of δ-opioid receptor (DOR) (P41143 whole entry): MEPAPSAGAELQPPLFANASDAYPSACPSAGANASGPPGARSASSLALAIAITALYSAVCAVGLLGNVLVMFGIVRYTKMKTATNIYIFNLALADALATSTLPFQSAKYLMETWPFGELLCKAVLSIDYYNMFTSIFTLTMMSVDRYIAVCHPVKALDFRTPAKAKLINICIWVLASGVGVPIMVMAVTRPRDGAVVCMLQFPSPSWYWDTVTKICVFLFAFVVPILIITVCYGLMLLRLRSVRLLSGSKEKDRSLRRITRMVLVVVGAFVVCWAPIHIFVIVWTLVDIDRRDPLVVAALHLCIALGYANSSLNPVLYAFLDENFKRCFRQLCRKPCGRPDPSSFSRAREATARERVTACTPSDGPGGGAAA

Question: For `Oc1ccc2c3c1O[C@H]1c4[nH]c5ccccc5c4C[C@@]4(O)[C@@H](C2)N(CC2CC2)CC[C@]314` [naltrindole], which “effect on DADLE-induced Aβ production” value [1] is on record?
Answer: abolished the effect of DADLE

Question: What about the “crossing of the blood-brain barrier (BBB)” value [2] of the same compound?
Answer: can cross the BBB

Question: And the “escape latency, visible platform training” value [3]?
Answer: no drug effect was observed

Question: And the “escape latency, hidden platform training” value [3]?
Answer: ameliorated cognitive impairment

Question: Which “percent time spent in the platform quadrant, probe trial” value (“percent time spent” for short) [3] does the source give for `CC(C)NCC(O)COc1cccc2ccccc12` (centres unmarked) [propranolol] here?
Answer: partially ameliorated the impairment of spatial memory

Question: What about the “swim speed as cause of the observed effects” value [3] of the same compound?
Answer: did not result from difference in swim speeds

Question: What about the “escape latency, visible platform training” value [3] of the same compound?
Answer: No genotype or drug effect

Question: And the “escape latency, hidden platform training” value [3]?
Answer: partially ameliorate the impairment

Question: For `CC(C)NCC(O)c1ccc(O)c(O)c1` (centres unmarked) [Iso, isoproterenol], which “co-localization of PS1 or nicastrin with LAMP-1” value [4] is on record?
Answer: increased

Question: What about the “Iso-induced enhancement of γ-secretase activity” value [5] of the same compound?
Answer: Presenilin-deficiency abolished the Iso-induced enhancement

Question: And the “γ-secretase activity, compound alone” value [6]?
Answer: γ-secretase activity was enhanced

Question: And the “secreted Aβ” value [7]?
Answer: increases Aβ production

Question: And the cerebral amyloid plaques [8]?
Answer: increased cerebral amyloid plaques; also recorded: accelerated amyloid plaque formation

Question: Which results are given for `CC(C)(C)NCC(O)COc1cccc2c1CC(O)C(O)C2` (centres unmarked) [nadolol]?
Answer: percent time spent in the platform quadrant, probe trial [3]: had no effect; escape latency, visible platform training [3]: No genotype or drug effect; escape latency, hidden platform training [3]: showed no effect; escape latency, hidden platform training ([3]; listed as Nadolol): showed no effect on the impairment

Question: Which “effect on Iso-induced enhancement of γ-secretase activity” value ([6]; C6 glioma, 10 μM Iso 30 min after pretreatment with 0.25 mg/ml Con A or 0.5 M Suc) does the source give for concanavalin A [Con A] here?
Answer: abolished

Question: What does the source list for `NC[C@H](O)c1ccc(O)c(O)c1` [norepinephrine]?
Answer: γ-secretase activity in hippocampus [9]: significantly enhanced; also recorded: enhanced γ-secretase activity; Aβ levels (Aβ40 and Aβ42) in hippocampus [10]: significantly enhanced; also recorded: increased secreted Aβ 40 and Aβ 42 levels

Question: For pertussis toxin [PTX], which “effect on DADLE-induced enhancement of γ-secretase activity” value ([11]; SH-SY5Y, 1 μM DADLE after 12 hours pre-treatment with 200 ng/ml PTX) is on record?
Answer: not abolished; also recorded: did not alter the enhancement of γ-secretase activity

Question: With cholera toxin as the compound, how does the “γ-secretase activity, compound alone” value [6] read?
Answer: did not result in enhanced γ-secretase activity

Question: Which results are given for `Cc1ccc(OCC(O)C(C)NC(C)C)c2c1CCC2` (centres unmarked) [ICI 118,551]?
Answer: percentage time spent on the platform, probe trial ([12]; 24-h after final hidden platform training, 1 mg/kg ICI 118,551 oral daily for 30 days, listed as ICI): spent greater proportion of time in the platform; also recorded: spent greater proportion of time in the target quadrant; escape latency, visible platform [12]: small, but statistically insignificant, effects of drug treatments; also recorded: No significant effect; escape latency, hidden platform [12]: displayed a faster learning curve than the Sal mice; also recorded: displayed a faster learning curve than the Sal ones; crossing of the blood-brain barrier (BBB) [2]: can cross the BBB; swim speed as cause of the observed effects [3]: did not result from changes in swim speeds; escape latency, visible platform training [3]: no drug effect was observed; escape latency, hidden platform training [3]: significantly ameliorated cognitive impairment; cerebral amyloid plaques [8]: significantly reduced the amounts of amyloid plaques; also recorded: effective in suppressing the formation of β-amyloid plaques

Question: What does the source list for `CC(C)NCC(O)COc1ccc(CCOCC2CC2)cc1` (centres unmarked) [Betaxolol]?
Answer: crossing of the blood-brain barrier (BBB) [2]: can cross the BBB; percent time spent in the platform quadrant, probe trial [3]: showed less significant effect; also recorded: showed no effect; escape latency, visible platform training [3]: no drug effect was observed; escape latency, hidden platform training [3]: showed some effect; also recorded: showed some extent of amelioration, but the effect was not statistically significant

Question: For `COCCc1ccc(OCC(O)CNC(C)C)cc1` (centres unmarked) [Metoprolol], which “percent time spent” value [3] is on record?
Answer: showed no effect

Question: What about the “percent time spent” value ([3]; listed as metoprolol) of the same compound?
Answer: had no effect

Question: What about the “escape latency, visible platform training” value [3] of the same compound?
Answer: no drug effect was observed

Question: And the “escape latency, hidden platform training” value [3]?
Answer: showed no effect

Question: Which results are given for `CC(C)C[C@@H](NC(=O)[C@H](Cc1ccccc1)NC(=O)CNC(=O)[C@@H](C)NC(=O)[C@@H](N)Cc1ccc(O)cc1)C(=O)O` [DADLE, [D-Ala^2, D-Leu^5]-enkephalin]?
Answer: γ-secretase activity ([11]; SH-SY5Y neuroblastoma, 1 μM DADLE, 30 minutes): enhanced γ-secretase activity; γ-secretase activity in the AP positive fraction ([11]; SH-SY5Y, 1 μM DADLE 30 minutes, then fractionated): enhanced the γ-secretase activity in the AP positive fraction; γ-secretase activity [13]: enhanced γ-secretase activity

Question: For `COc1ccc(OC)c(C(O)C(C)NC(C)(C)C)c1` (centres unmarked) [Butoxamine], which “crossing of the blood-brain barrier (BBB)” value [2] is on record?
Answer: can cross the BBB

Question: And the “swim speed as cause of the observed effects” value [3]?
Answer: not due to difference in swim speeds

Question: What about the “escape latency, visible platform training” value [3] of the same compound?
Answer: no drug effect was observed

Question: And the “escape latency, hidden platform training” value [3]?
Answer: significantly ameliorated cognitive impairment

Question: For `CC(C)(C)NCC(O)c1cc(Cl)c(N)c(Cl)c1` (centres unmarked) [clenbuterol], which “escape latency, visible platform” value [12] is on record?
Answer: small, but statistically insignificant, effects of drug treatments; also recorded: No significant effect

Question: And the “escape latency, hidden platform” value [12]?
Answer: seemed to have no effect

Question: And the “γ-secretase activity in hippocampus” value [9]?
Answer: significantly enhanced; also recorded: enhanced γ-secretase activity

Question: And the “Aβ levels (Aβ40 and Aβ42) in hippocampus” value [10]?
Answer: significantly enhanced; also recorded: increased secreted Aβ 40 and Aβ 42 levels

Question: And the cerebral amyloid plaques [8]?
Answer: accelerated amyloid plaque formation

Question: And the cerebral amyloid plaques ([8]; listed as Cle)?
Answer: increased cerebral amyloid plaques

Question: With transferrin as the compound, how does the γ-secretase activity [14] read?
Answer: does not lead to enhanced γ-secretase activity; also recorded: failed to enhance γ-secretase activity

Question: For `CC(C)C[C@H](NC(=O)[C@H](Cc1ccccc1)C[C@@H](O)[C@H](Cc1ccccc1)NC(=O)OC(C)(C)C)C(=O)N[C@@H](Cc1ccccc1)C(N)=O` [L685,458], which “effect on Iso-induced increase in secreted Aβ” value [15] is on record?
Answer: abolished the increased production of the secreted Aβ

— US8026073B2, “Screening G protein-coupled receptor antagonists for methods of treating Alzheimer's disease” (Shanghai Institutes for Biological Sciences, Chinese …, priority 2005, dated 2011)
